Measurements: patent publication US12246026B2, “Ganaxolone for use in treatment of status epilepticus” (Marinus Pharmaceuticals, Inc., priority 2019, dated 2025)

How the values were obtained:
[1] = system: pediatric subject with SRSE; test: Emergency IND No. 137,883, IV GNX in pediatric SRSE
CYP3A4/5 = test: Metabolism by CYP enzymes; details: human
[2] = cited from earlier work
[3] = Emergency IND No. 131,642, GNX plasma concentration; format: in vivo; details: human, intravenous, eIND 131,642, Day 1 regimen delivering 900 mg
Experimental: Under eIND No. 131,642, IV GNX was administered to a subject with SRSE who was unable to maintain status cessation with ketamine and barbiturates. The Day 1 dosage regimen delivered 900 mg of GNX, equating to a 900 to 1200 ng/mL plasma concentration of GNX. As the subject could not be maintained in burst suppression, the clinical team was able to utilize EEG changes to gauge the response (FIG. 11). […] However, due to the dosing plan agreed upon with the FDA with a daily Captisol limit of 63 g/day, the initial 120 mg/hr dose on Day 1 could not be maintained for longer than 1 hour and then had to be decreased to the 30 mg/hr dose. The first seizures re-occurred within 15 to 20 minutes of the change in GNX dose from 120 mg/hr to 30 mg/hr.

[4] = Toxicology studies in animals on prenatal and neonatal development; format: in vivo
Text: Ganaxolone has been administered to infants with severe forms of epilepsy as early as 4 months of age. In clinical trials involving administration of ganaxolone over several weeks, the study drug has been tapered off over a 1 to 2-week period.

progesterone receptor = biological target: T1, progesterone receptor (Homo sapiens, UniProt P06401); test: Progesterone receptor activation; details: directly or indirectly via metabolic conversion
T1 sequence (P06401 1-933): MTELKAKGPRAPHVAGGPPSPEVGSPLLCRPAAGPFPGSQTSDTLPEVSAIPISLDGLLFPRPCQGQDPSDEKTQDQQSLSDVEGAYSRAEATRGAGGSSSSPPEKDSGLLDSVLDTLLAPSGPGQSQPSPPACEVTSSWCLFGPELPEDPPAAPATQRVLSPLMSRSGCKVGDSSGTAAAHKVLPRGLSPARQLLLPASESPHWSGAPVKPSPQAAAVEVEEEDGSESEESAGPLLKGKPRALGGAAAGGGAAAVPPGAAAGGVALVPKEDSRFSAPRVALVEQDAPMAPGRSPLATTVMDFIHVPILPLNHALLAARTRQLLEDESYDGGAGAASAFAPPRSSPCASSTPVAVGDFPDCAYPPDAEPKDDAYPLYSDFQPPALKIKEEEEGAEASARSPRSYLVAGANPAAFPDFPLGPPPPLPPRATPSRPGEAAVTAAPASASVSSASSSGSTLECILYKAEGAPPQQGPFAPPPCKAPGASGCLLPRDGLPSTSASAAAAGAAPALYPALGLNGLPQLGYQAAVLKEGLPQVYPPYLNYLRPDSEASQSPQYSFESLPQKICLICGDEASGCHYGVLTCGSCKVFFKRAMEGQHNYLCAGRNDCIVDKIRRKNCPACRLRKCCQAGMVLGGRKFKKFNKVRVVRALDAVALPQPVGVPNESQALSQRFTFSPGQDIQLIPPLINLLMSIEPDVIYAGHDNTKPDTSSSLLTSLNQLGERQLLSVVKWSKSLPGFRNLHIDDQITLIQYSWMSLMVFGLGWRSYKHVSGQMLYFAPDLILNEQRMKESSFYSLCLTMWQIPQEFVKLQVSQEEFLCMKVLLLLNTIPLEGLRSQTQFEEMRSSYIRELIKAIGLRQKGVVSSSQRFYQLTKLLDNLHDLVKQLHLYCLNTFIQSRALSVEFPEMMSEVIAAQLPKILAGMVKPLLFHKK
Text: Ganaxolone (3α-hydroxy-3β-methyl-5α-pregnan-20-one) is a 3β-methylated synthetic analogue of the endogenous neurosteroid allopregnanolone with similar biological activity (Carter et al., (1997), The Journal of Pharmacology and Experimental Therapeutics, 280:1284-1295), but it is designed to not activate nuclear (classical) progesterone receptors. Also, in contrast to allopregnanolone, ganaxolone is orally bioavailable.

Q: Which “duration of suppressed EEG background” value ([1]; eIND 137,883) does the source give for `CC(=O)[C@H]1CC[C@H]2[C@@H]3CC[C@H]4C[C@](C)(O)CC[C@]4(C)[C@H]3CC[C@]12C` [Ganaxolone, 3α-hydroxy-3β-methyl-5α-pregnan-20-one] here?
A: approximately 2 hours

Q: And the “finding on examination leading to stop of infusion” value ([1]; eIND 137,883)?
A: nonreactive pupils

Q: And the “EEG at the time of GNX bolus infusion” value ([1]; eIND 137,883, concomitant pentobarbital 2.25 mg/kg/hr)?
A: continuous suppressed background

Q: What about the metabolizing enzymes (CYP3A4/5) of the same compound?
A: metabolized by CYP3A4/5

Q: What about the half-life ([2]; human plasma following oral administration) of the same compound?
A: approximately 20 hours

Q: What about the Tmax ([2]; human) of the same compound?
A: short

Q: And the concentration at 1 day [3]?
A: 900 to 1200 ng/mL

Q: And the “toxicities in prenatal and neonatal development studies” value [4]?
A: have not demonstrated toxicities

Q: And the “activation of the progesterone receptor” value (progesterone receptor)?
A: does not activate the progesterone receptor directly or indirectly
